Assay results reported in US20250099434A1, “METHODS OF TREATING AMYLOID RELATED BRAIN DISORDERS USING NOVEL COMPOUNDS AND ANTIBODIES” (T3D Therapeutics, Inc., priority 2022, published 2025).
Values joined by “and” are separate entries in the source; they are usually repeats but may differ in a detail not shown here. Identical values can stand only once. Like-named read-outs stand apart in the source and are kept apart here.

What was measured:
P-glycoprotein (P-gp) = P-glycoprotein (P-gp) (Homo sapiens, UniProt P08183); assay: P-gp substrate assessment (Caco-2, verapamil)
P-glycoprotein (P-gp), sequence (P08183 whole entry): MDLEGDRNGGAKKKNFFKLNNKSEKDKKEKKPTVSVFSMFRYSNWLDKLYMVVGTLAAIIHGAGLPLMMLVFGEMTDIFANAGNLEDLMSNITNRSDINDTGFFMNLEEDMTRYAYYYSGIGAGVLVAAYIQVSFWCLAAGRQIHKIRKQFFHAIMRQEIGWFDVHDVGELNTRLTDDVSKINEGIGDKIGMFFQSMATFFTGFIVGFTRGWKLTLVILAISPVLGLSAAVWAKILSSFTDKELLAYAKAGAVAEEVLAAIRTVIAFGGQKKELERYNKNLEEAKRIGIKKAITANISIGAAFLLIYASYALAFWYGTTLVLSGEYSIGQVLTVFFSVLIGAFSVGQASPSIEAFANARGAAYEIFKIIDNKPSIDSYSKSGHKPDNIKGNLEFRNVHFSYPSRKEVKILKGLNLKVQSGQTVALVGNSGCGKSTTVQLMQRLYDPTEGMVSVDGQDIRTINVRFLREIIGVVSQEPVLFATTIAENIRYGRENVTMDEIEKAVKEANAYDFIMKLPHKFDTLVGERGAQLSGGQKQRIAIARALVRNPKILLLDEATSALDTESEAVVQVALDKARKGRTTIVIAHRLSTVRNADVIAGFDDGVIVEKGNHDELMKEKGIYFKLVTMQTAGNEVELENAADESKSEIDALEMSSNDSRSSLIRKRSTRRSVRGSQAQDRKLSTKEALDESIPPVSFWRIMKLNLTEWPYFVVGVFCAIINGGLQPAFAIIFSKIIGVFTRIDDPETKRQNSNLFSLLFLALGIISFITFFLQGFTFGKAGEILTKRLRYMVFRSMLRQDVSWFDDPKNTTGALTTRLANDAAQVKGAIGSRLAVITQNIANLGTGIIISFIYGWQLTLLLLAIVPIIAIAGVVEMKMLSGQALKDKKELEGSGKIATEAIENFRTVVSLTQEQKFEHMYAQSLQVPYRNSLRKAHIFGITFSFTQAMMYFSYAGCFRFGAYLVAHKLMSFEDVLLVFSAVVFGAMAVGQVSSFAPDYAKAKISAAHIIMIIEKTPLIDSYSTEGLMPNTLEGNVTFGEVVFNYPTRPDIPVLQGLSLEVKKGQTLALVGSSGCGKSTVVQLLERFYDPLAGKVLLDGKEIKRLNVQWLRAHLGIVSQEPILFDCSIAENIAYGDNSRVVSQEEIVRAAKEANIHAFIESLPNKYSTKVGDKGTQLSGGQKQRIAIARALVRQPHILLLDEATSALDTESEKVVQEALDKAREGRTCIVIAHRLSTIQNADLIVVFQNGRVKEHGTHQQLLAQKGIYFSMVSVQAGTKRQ

human PPARδ = biological target: T1, human PPARδ (Homo sapiens, UniProt Q03181); assay: Human PPAR activation, transient transfection in CV-1 cells (δ subtype); assay type: cell-based
T1 construct: expressed in transfected cells; host or cells: CV-1 cells
T1 sequence (Q03181 1-441): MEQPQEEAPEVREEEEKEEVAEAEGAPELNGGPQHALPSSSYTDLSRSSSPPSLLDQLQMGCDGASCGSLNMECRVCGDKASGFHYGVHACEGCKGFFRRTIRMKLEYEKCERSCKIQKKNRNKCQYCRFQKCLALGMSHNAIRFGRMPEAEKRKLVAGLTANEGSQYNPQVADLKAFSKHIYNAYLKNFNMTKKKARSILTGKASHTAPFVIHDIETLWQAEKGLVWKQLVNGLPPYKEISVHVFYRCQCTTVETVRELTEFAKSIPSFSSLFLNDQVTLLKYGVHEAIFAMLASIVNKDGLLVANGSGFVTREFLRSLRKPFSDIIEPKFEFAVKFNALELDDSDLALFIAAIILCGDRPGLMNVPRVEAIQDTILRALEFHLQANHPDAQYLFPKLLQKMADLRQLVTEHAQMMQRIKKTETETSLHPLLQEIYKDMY

Caco-2 = Caco-2 permeability with and without P-gp inhibitor verapamil; details: absence of a P-gp inhibitor
[1] = tested on: patients with mild-to-moderate Alzheimer's disease (AD); assay: BOLD fMRI (task-free fMRI) clinical study, baseline vs end of treatment; assay type: in vivo, human
Protocol: The majority were non-Hispanic and of white origin.
T3D Therapeutics completed an exploratory analysis of the Phase 2A non-placebo-controlled feasibility study to assess the therapeutic effects of T3D959 in patients with mild-to-moderate Alzheimer's disease (AD) via task-free functional magnetic resonance imaging (tf-fMRI). A total of 34 subjects participated and were split into 4 groups that took different amounts of T3D959 over the course of the study: 3 mg, 10 mg, 30 mg, and 90 mg. A baseline tf-fMRI scan was obtained prior to treatment and another two weeks after. Sixteen tf-fMRI metrics were calculated at each time point and summarized for each patient group to assess the therapeutic effect of T3D959.
The T3D clinical trial investigated the following metrics: • 1. Goodness of Fit of the subject's default mode network regions compared to those of an elderly control group. • 2. The correlation strength between the hippocampus and precuneus. • 3. The global efficiency calculated from 11 pre-defined default mode network regions. • 4. The global efficiency calculated from 90 pre-defined cerebral regions based on the automated anatomical labeling atlas. • 5. The amplitude of low frequency fluctuations (ALFF) and […] of low frequency fluctuations (fALFF) from the right posterior cingulate cortex (PCC) and precuneus (PreC) in the low frequency oscillations (LFO) range (0.01-0.08 Hz). • 6. The ALFF and fALFF from the left PCC and PreC in the LFO range. • 7. The regional homogeneity (ReHo) in the right PCC and PreC. • 8. The ReHo in the left PCC and PreC. • 9. […] The ALFF and fALFF from the left IPL in the LFO range. • 11. The ReHo in the right IPL • 12. The ReHo in the left IPL.

[2] = time point 1.0, individual rats
[3] = time point 3.0, individual rats
[4] = time point 5.0, individual rats
[5] = time point 7.0, individual rats
[6] = time point 12.0, individual rats

## CCc1oc(-c2ccc(OC)cc2)nc1CCOc1ccc2c(c1)CC[C@H]2CC(=O)[O-].[Na+] [Example 11, Sodium (S)-2-(5-(2-(5-ethyl-2-(4-methoxyphenyl)oxazol-4-yl)ethoxy)-2,3-dihydro-1H-inden-1-yl)acetate]
P-glycoprotein (P-gp)
  substrate for P-gp: not a substrate for P-gp
Human PPARδ
  Peak effect PPARδ: 17.68
  greater potency in activating human PPARδ subtype over human PPARγ subtype: 15 fold
Caco-2
  Papparent: 1144 nm/s
[1]; 3 mg
  ALFF-IIPL, Change from Baseline EOT, Mean: −0.0635
  ALFF-IIPL, Change from Baseline EOT, Median: −0.0393
  ALFF-rIPL, Change from Baseline EOT, Mean: −0.0493
  ALFF-rIPL, Change from Baseline EOT, Median: −0.0587
  ReHo-IIPL, Change from Baseline EOT, Mean: −0.0694
  ReHo-IIPL, Change from Baseline EOT, Median: −0.0822
  ReHo-IPPC-PreC, Change from Baseline EOT, Mean: −0.0665
  ReHo-IPPC-PreC, Change from Baseline EOT, Median: −0.0428
  ReHo-rIPL, Change from Baseline EOT, Mean: −0.0694
  ReHo-rIPL, Change from Baseline EOT, Median: −0.0822
  ReHo-rPPC-Prec, Change from Baseline EOT, Mean: −0.0390
  ReHo-rPPC-Prec, Change from Baseline EOT, Median: −0.0081
  fALFF-IIPL, Change from Baseline EOT, Mean: −0.0296
  fALFF-IIPL, Change from Baseline EOT, Median: −0.0311
  fALFF-IPPC-PreC, Change from Baseline EOT, Mean: 0.0121
  fALFF-IPPC-PreC, Change from Baseline EOT, Median: 0.0019
  fALFF-rIPL, Change from Baseline EOT, Mean: −0.0342
  fALFF-rIPL, Change from Baseline EOT, Median: −0.0327
  fALFF-rPPC-PreC, Change from Baseline EOT, Mean: −0.0080
  fALFF-rPPC-PreC, Change from Baseline EOT, Median: −0.0229
[1]; 10 mg
  ALFF-IIPL, Change from Baseline EOT, Mean: 0.0104
  ALFF-IIPL, Change from Baseline EOT, Median: 0.0273
  ALFF-rIPL, Change from Baseline EOT, Mean: −0.0276
  ALFF-rIPL, Change from Baseline EOT, Median: −0.0278
  ReHo-IIPL, Change from Baseline EOT, Mean: 0.0147
  ReHo-IIPL, Change from Baseline EOT, Median: −0.0201
  ReHo-IPPC-PreC, Change from Baseline EOT, Mean: 0.0237
  ReHo-IPPC-PreC, Change from Baseline EOT, Median: 0.0523
  ReHo-rIPL, Change from Baseline EOT, Mean: 0.0147
  ReHo-rIPL, Change from Baseline EOT, Median: −0.0201
  ReHo-rPPC-Prec, Change from Baseline EOT, Mean: −0.0663
  ReHo-rPPC-Prec, Change from Baseline EOT, Median: 0.0153
  fALFF-IIPL, Change from Baseline EOT, Mean: 0.0164
  fALFF-IIPL, Change from Baseline EOT, Median: 0.0097
  fALFF-IPPC-PreC, Change from Baseline EOT, Mean: 0.0068
  fALFF-IPPC-PreC, Change from Baseline EOT, Median: −0.0068
  fALFF-rIPL, Change from Baseline EOT, Mean: 0.0061
  fALFF-rIPL, Change from Baseline EOT, Median: 0.0096
  fALFF-rPPC-PreC, Change from Baseline EOT, Mean: 0.0084
  fALFF-rPPC-PreC, Change from Baseline EOT, Median: −0.0028
[1]; 30 mg
  ALFF-IIPL, Change from Baseline EOT, Mean: −0.0102
  ALFF-IIPL, Change from Baseline EOT, Median: −0.0031
  ALFF-rIPL, Change from Baseline EOT, Mean: 0.0346
  ALFF-rIPL, Change from Baseline EOT, Median: 0.0332
  ReHo-IIPL, Change from Baseline EOT, Mean: −0.0249
  ReHo-IIPL, Change from Baseline EOT, Median: −0.0135
  ReHo-IPPC-PreC, Change from Baseline EOT, Mean: −0.0369
  ReHo-IPPC-PreC, Change from Baseline EOT, Median: −0.0398
  ReHo-rIPL, Change from Baseline EOT, Mean: −0.0249
  ReHo-rIPL, Change from Baseline EOT, Median: −0.0135
  ReHo-rPPC-Prec, Change from Baseline EOT, Mean: −0.0895
  ReHo-rPPC-Prec, Change from Baseline EOT, Median: −0.1176
  fALFF-IIPL, Change from Baseline EOT, Mean: −0.0107
  fALFF-IIPL, Change from Baseline EOT, Median: −0.0034
  fALFF-IPPC-PreC, Change from Baseline EOT, Mean: −0.0132
  fALFF-IPPC-PreC, Change from Baseline EOT, Median: −0.0141
  fALFF-rIPL, Change from Baseline EOT, Mean: 0.0023
  fALFF-rIPL, Change from Baseline EOT, Median: 0.0001
  fALFF-rPPC-PreC, Change from Baseline EOT, Mean: −0.0007
  fALFF-rPPC-PreC, Change from Baseline EOT, Median: −0.0133
[1]; 90 mg
  ALFF-IIPL, Change from Baseline EOT, Mean: −0.0401
  ALFF-IIPL, Change from Baseline EOT, Median: −0.0560
  ALFF-rIPL, Change from Baseline EOT, Mean: −0.1089
  ALFF-rIPL, Change from Baseline EOT, Median: −0.0671
  ReHo-IIPL, Change from Baseline EOT, Mean: −0.0062
  ReHo-IIPL, Change from Baseline EOT, Median: −0.0121
  ReHo-IPPC-PreC, Change from Baseline EOT, Mean: 0.0194
  ReHo-IPPC-PreC, Change from Baseline EOT, Median: 0.0566
  ReHo-rIPL, Change from Baseline EOT, Mean: −0.0062
  ReHo-rIPL, Change from Baseline EOT, Median: −0.0121
  ReHo-rPPC-Prec, Change from Baseline EOT, Mean: −0.0041
  ReHo-rPPC-Prec, Change from Baseline EOT, Median: 0.0177
  fALFF-IIPL, Change from Baseline EOT, Mean: −0.0350
  fALFF-IIPL, Change from Baseline EOT, Median: −0.0211
  fALFF-IPPC-PreC, Change from Baseline EOT, Mean: −0.0167
  fALFF-IPPC-PreC, Change from Baseline EOT, Median: −0.0166
  fALFF-rIPL, Change from Baseline EOT, Mean: −0.0395
  fALFF-rIPL, Change from Baseline EOT, Median: −0.0313
  fALFF-rPPC-PreC, Change from Baseline EOT, Mean: −0.0118
  fALFF-rPPC-PreC, Change from Baseline EOT, Median: 0.0039
[2]
  B/P Ratio: 0.22 and 0.36 and 0.51
  Brain Tissue Cone.: 226 ng/g and 161 ng/g and 101 ng/g
Time point 1.0, three rats
  Average (B/P Ratio): 0.361
[3]
  B/P Ratio: 0.26 and 0.21 and 0.19
  Brain Tissue Cone.: 234 ng/g and 269 ng/g and 274 ng/g
  Plasma Conc.: 1270 ng/mL and 1430 ng/mL
Time point 3.0, three rats
  Average (B/P Ratio): 0.220
[4]
  B/P Ratio: 0.17 and 0.18 and 0.16
  Brain Tissue Cone.: 208 ng/g and 247 ng/g and 333 ng/g
  Plasma Conc.: 1260 ng/mL and 1340 ng/mL and 2040 ng/mL
Time point 5.0, three rats
  Average (B/P Ratio): 0.171
[5]
  B/P Ratio: 0.16 and 0.35 and 0.47
  Brain Tissue Cone.: 203 ng/g and 216 ng/g
Time point 7.0, three rats
  Average (B/P Ratio): 0.328
[6]
  B/P Ratio: 0.30 and 0.44 and 0.31
  Brain Tissue Cone.: 104 ng/g and 114 ng/g and 117 ng/g
  Plasma Conc.: 345 ng/mL and 259 ng/mL and 377 ng/mL
Time point 12.0, three rats
  Average (B/P Ratio): 0.350
